The target in experiment [1] is Serine/threonine-protein kinase N2 (Homo sapiens) (UniProt Q16513). In words: Residual activity of PRK2 at 10 uM by microplate scintillation counting.
The target of experiment [2] is T1, Activin receptor type-1 (Homo sapiens) (UniProt Q04771).
T1 sequence (whole entry): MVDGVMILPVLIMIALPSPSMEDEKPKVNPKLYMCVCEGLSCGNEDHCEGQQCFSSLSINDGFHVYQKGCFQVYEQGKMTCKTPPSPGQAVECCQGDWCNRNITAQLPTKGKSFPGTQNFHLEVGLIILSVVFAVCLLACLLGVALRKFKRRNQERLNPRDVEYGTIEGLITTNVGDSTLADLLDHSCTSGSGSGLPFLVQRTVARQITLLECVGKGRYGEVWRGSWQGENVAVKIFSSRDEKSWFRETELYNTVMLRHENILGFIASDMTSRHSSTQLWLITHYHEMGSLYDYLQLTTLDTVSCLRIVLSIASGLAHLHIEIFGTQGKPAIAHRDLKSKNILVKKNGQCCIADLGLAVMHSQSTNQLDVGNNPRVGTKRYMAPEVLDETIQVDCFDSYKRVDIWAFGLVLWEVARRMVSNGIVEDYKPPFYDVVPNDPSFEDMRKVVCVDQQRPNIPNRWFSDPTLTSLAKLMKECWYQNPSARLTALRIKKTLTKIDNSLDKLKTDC
In words: Residual activity of ACV-R1 at 1 uM by microplate scintillation counting.

Experiment [3] addresses T2, Serine/threonine-protein kinase D3 (Homo sapiens) (UniProt O94806).
T2 sequence (whole entry): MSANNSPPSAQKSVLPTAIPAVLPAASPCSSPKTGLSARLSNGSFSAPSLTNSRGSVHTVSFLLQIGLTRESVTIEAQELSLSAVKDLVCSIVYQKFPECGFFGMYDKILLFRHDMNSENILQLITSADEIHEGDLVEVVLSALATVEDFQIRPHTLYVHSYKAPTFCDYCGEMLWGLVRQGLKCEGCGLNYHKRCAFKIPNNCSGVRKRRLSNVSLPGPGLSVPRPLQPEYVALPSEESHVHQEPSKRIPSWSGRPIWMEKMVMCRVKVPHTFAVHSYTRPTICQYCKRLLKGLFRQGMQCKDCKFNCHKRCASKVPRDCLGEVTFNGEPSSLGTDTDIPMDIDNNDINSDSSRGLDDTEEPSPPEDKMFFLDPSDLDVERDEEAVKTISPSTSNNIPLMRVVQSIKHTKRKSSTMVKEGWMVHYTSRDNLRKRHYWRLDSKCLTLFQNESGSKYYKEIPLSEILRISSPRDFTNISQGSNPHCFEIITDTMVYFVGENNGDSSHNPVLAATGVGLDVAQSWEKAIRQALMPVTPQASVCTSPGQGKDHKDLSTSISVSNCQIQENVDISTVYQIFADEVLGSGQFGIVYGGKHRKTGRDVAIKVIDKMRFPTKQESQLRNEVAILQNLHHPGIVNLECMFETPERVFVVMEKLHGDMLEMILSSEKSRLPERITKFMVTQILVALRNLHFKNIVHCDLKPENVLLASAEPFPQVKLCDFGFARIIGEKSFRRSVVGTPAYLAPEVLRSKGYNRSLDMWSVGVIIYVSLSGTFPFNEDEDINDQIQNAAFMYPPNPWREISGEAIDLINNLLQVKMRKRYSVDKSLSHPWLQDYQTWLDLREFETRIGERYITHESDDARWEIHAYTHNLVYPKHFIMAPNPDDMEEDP
Nature of the experiment: Residual activity of PKCnu at 1 uM by microplate scintillation counting.

For experiment [4], the target named is T3, Cytoplasmic tyrosine-protein kinase BMX (Homo sapiens) (UniProt P51813).
T3 sequence (whole entry): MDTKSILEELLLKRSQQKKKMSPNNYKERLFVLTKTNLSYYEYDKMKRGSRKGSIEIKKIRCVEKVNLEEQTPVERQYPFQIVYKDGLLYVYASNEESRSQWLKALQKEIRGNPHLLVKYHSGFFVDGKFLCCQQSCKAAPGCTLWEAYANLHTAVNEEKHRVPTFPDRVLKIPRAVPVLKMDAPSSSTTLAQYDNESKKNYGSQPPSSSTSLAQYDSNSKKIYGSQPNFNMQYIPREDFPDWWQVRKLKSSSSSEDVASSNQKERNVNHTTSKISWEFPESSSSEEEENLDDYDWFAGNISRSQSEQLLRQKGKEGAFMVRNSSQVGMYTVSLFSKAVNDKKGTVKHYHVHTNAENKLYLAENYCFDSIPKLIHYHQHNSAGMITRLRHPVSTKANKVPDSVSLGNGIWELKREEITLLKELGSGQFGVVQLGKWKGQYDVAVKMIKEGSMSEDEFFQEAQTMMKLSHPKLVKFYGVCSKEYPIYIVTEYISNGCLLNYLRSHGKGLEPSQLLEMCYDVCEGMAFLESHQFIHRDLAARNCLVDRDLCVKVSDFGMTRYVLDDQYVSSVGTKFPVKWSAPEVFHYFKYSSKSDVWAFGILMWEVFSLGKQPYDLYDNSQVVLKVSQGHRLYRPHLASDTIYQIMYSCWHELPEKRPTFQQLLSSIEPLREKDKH
In words: Residual activity of BMX at 0.1 uM by microplate scintillation counting.

Chain of Serine/threonine-protein kinase N2 (Homo sapiens) (Q16513 whole entry, looked up): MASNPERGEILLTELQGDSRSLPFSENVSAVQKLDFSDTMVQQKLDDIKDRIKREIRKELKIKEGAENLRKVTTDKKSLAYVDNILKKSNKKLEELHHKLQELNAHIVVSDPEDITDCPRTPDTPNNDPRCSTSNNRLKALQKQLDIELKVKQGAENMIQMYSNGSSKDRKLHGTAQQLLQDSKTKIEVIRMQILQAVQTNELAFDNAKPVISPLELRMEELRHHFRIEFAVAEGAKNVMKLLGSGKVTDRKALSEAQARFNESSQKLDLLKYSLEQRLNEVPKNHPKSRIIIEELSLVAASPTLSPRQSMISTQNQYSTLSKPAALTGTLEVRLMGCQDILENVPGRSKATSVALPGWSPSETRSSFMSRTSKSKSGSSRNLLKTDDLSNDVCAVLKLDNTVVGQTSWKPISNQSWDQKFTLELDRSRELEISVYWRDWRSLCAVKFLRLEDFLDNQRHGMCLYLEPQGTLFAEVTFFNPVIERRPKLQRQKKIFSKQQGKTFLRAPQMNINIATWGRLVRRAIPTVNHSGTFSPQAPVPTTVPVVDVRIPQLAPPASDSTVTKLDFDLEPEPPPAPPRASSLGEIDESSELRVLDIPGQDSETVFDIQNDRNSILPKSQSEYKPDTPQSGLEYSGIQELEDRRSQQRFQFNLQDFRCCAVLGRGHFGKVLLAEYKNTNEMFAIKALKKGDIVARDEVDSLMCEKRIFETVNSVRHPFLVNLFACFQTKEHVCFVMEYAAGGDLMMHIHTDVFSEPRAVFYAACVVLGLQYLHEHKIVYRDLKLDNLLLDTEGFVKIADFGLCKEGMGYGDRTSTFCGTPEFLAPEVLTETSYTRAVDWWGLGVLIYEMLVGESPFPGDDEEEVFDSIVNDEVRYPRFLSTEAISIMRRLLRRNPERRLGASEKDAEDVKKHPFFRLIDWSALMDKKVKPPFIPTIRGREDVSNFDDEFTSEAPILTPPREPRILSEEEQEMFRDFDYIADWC

In general, residual activity refers to the signal under treatment as a percentage of the control signal. Turning to `COc1cc2c(Oc3ccc(-c4nc5ccccc5s4)cc3F)ncnc2cc1OCCCN1CCN(C)CC1`, the residual activity in experiment [1] is 75%; in experiment [2] it was 93%; in experiment [3], 88%; in experiment [4], 116%.
For the compound `COc1cc2c(Oc3ccc(-c4nc5ccccc5s4)cc3)ncnc2cc1OCCCN1CCN(C)CC1`, the residual activity is 95% in experiment [1], 89% in experiment [2], 83% in experiment [3] and 117% in experiment [4].
Turning to `COc1cc2c(Oc3ccc(-c4nc5ccccc5s4)cc3)ncnc2cc1OCCCN1CCCC1`, the residual activity was 85% in experiment [1], 85% in experiment [2], 87% in experiment [3] and 94% in experiment [4].

(Values after ChEMBL document CHEMBL1152560, “Substituted 2-arylbenzothiazoles as kinase inhibitors: hit-to-lead optimization” (Bioorg Med Chem, 2009).)
